One series concerns the target T1, hTRPA1 (Homo sapiens, UniProt O75762).
T1 construct: expressed in transfected cells; host or cells: HEK-293, stably transfected
Description: Selectivity fluorimetric assay, HEK-293 cells. The format is cell-based. The settings on record: AITC as reference agonist.

The target in another series is T2, hNav1.7 (Homo sapiens, UniProt Q15858).
T2 construct: expressed in transfected cells; host or cells: HEK-293, stably transfected
Description: Selectivity fluorimetric assay, HEK-293 cells. The format is cell-based. The settings on record: for IC50: read-out: IC50, antagonistic activity over Nav1.7; for activity as agonist or antagonist on Nav1.7: veratridine as reference agonist.

Another series has as its target T3, hTRPV1 (Homo sapiens, UniProt Q8NER1).
T3 construct: expressed in transfected cells; host or cells: CHO-K1, stably transfected
Put plainly: Selectivity fluorimetric assay, CHO-K1 cells. The format is cell-based. To be noted: capsaicine as reference agonist.

Series [1] has as its target T4, rat isoform of TRPM8 channels (Rattus norvegicus, UniProt Q8R455).
T4 construct: expressed in transfected cells
Description: Ca2+ fluorimetric assay, menthol-activated channel. The format is cell-based. The procedure:
TRPM8 blocker activity of all synthesized compounds was tested by Ca^2+ fluorimetric assays using HEK-293 cells stably expressing the rat isoform of TRPM8 channels, using menthol and AMTB as prototypical agonist and antagonist, respectively.
For measurement of the potency of the compounds, fluorimetric experiments were performed using HEK-293 cells (CRL-1573TM, American Type Culture Collection, LGC Promochem, Molsheim, France) that stably express rat TRPM8. The cells were seeded in 96-well plates (Corning Incorporated, Corning, NY) at a cell density of 40 000 cells 2 days before treatment. On the day of treatment, the medium was replaced with 100 μL of the dye loading solution Fluo-4 NW supplemented with probenecid 2.5 mM.
The tested molecules dissolved in DMSO were added at the desired concentrations, and the plates were incubated in darkness at 37 °C in a humidified atmosphere of 5% CO2 for 60 min. The fluorescence was measured using instrument settings appropriate for excitation at 485 nm and emission at 535 nm (POLARstar Omega BMG LABtech). A baseline recording of four cycles was recorded prior to stimulation with the agonist (100 μM menthol for TRPM8). The TRPM8 antagonist, 10 μM AMTB, was added to the medium containing the corresponding agonist to induce channel blockade. The changes in fluorescence intensity were recorded during 15 cycles more. The higher concentration of DMSO used in the experiment was added to the control wells. The cells’ fluorescence was measured before and after the addition of various concentrations of test compounds. The fluorescence values obtained are normalized to that prompted by the corresponding agonist (for channel activating compounds) or upon agonist and antagonist coexposure (for channel blocker compounds).

Series [2] can be described thus: In vitro metabolic stability using liver microsomes. In kind it is in vitro ADME, human. To be noted: 60 min with liver microsomes, no NADPH or UDP-GlcUA/NADPH. As to the method: Compound 4 was used as reference, considering that its main pitfall was represented by metabolic instability that the newly synthesized compounds were aimed in overcoming. […] Each sample (2.5 mM) was incubated with 100 mM phosphate buffer (pH 7.4) and 20 mg/mL of liver microsomes (Thermo Fisher Scientific, Bremen, Germany). After preincubation in water bath for 5 min, the mixture was incubated with 20 mM NADPH (protocol I) at 37 °C for 60 min in a Thermomixer comfort (Eppendorf, Hamburg, Germany). For the measurement of UGT activity the microsomes were preincubated with alamethicin, which forms pores in microsomal membranes, promoting access of substrate and cofactor to UGT enzymes. Subsequently, each sample was incubated with 100 mM phosphate buffer, 500 mM magnesium chloride, 10 mM NADPH, and 20 mM UDP-GlcUA at 37 °C for 60 min. Finally, the reactions from both protocols (protocols I and II) were stopped by the addition of 200 μL of ice-cold methanol, and then samples were centrifuged at 10 000 rpm at 25 °C for 5 min (Eppendorf microcentrifuge 5424, Hamburg, Germany). The supernatants were collected and injected in UHPLC-PDA. The control at 0 min was obtained by addition of the organic solvent immediately after incubation with microsomes. […] The extent of metabolism is expressed as a percentage of the parent compound turnover using the following equation, as previously described:[43] […]
In general terms: Microsomes from liver hold many membrane-bound enzymes, among them those of drug oxidation.

A short description of series [3]: Time-course cis to trans epimerization stability (HPLC). The format is physicochemical. The settings on record: for conversion of cis isomer to trans isomer: during 60 min, regardless of the solvent used (PBS, methanol). As to the method: In this case, a different chemical approach is required because of the minor reactivity of anilines. Intermediates THBC 32a and 32b were coupled with 3CF3 or 2F or 4-F-phenyl isocyanate in basic medium of TEA. […] Absolute configuration was determined as described above. The formation of the cis intermediates, which was not observed with the N-benzyl or N-alkyl analogs, can be explained by the increased stability of the kinetic control species due to the higher rigidity of this structure. […] In addition, the corresponding C-11a epimers 36a′–38a′ could be obtained directly by reaction of 32b with the corresponding isocyanates and TEA at 60 °C for 30 min in 39–45% yields.
Figure S1: Time-course trans (36a’-38a’) / cis (36b-38b) HPLC peak area ratio in physiological
buffer (PBS, panel A) and methanol (Panel B).

Setting [4] is: HEK-293 cells stably expressing rat TRPM8, menthol as agonist, mean ± SD of at least three measurements, read-out: IC50.
Where [5] appears, read: Table 2, Ca2+ fluorimetric assay, read-out: IC50 Ca2+.
Setting [6] is: supplementary xlsx, read-out: rTRPM8 IC50 (calcium microfluorimetric assays).

Each structure is given as a SMILES string. Several values for one entry are separate records, joined by “and”; a condition that tells them apart may be missing. Equal values may be shown once. Read-outs that look alike come from different tables or passages of the source. Bounds are passed on as bounds.

T3 sequence (Q8NER1 whole entry): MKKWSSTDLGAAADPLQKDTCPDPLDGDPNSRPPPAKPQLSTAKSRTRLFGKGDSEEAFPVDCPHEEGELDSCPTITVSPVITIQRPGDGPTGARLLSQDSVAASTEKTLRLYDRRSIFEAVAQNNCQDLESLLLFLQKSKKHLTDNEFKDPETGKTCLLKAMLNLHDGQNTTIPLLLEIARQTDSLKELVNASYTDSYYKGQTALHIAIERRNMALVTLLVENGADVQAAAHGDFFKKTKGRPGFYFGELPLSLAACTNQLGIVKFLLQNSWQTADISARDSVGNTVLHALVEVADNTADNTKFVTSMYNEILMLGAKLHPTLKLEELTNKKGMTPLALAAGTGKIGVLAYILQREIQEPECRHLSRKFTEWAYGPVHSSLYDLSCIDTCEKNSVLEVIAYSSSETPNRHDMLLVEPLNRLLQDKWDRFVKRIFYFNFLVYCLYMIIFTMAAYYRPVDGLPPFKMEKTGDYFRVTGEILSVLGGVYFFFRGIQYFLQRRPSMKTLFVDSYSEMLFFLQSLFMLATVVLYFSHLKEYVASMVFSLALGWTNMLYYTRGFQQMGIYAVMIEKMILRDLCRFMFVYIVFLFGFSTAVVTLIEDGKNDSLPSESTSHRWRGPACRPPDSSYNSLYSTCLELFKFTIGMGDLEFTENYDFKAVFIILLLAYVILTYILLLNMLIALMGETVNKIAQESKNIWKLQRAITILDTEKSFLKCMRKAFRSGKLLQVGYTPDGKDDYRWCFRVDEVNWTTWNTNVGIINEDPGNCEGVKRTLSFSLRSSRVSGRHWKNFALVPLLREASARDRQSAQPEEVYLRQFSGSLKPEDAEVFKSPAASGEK
T2 sequence (Q15858 whole entry): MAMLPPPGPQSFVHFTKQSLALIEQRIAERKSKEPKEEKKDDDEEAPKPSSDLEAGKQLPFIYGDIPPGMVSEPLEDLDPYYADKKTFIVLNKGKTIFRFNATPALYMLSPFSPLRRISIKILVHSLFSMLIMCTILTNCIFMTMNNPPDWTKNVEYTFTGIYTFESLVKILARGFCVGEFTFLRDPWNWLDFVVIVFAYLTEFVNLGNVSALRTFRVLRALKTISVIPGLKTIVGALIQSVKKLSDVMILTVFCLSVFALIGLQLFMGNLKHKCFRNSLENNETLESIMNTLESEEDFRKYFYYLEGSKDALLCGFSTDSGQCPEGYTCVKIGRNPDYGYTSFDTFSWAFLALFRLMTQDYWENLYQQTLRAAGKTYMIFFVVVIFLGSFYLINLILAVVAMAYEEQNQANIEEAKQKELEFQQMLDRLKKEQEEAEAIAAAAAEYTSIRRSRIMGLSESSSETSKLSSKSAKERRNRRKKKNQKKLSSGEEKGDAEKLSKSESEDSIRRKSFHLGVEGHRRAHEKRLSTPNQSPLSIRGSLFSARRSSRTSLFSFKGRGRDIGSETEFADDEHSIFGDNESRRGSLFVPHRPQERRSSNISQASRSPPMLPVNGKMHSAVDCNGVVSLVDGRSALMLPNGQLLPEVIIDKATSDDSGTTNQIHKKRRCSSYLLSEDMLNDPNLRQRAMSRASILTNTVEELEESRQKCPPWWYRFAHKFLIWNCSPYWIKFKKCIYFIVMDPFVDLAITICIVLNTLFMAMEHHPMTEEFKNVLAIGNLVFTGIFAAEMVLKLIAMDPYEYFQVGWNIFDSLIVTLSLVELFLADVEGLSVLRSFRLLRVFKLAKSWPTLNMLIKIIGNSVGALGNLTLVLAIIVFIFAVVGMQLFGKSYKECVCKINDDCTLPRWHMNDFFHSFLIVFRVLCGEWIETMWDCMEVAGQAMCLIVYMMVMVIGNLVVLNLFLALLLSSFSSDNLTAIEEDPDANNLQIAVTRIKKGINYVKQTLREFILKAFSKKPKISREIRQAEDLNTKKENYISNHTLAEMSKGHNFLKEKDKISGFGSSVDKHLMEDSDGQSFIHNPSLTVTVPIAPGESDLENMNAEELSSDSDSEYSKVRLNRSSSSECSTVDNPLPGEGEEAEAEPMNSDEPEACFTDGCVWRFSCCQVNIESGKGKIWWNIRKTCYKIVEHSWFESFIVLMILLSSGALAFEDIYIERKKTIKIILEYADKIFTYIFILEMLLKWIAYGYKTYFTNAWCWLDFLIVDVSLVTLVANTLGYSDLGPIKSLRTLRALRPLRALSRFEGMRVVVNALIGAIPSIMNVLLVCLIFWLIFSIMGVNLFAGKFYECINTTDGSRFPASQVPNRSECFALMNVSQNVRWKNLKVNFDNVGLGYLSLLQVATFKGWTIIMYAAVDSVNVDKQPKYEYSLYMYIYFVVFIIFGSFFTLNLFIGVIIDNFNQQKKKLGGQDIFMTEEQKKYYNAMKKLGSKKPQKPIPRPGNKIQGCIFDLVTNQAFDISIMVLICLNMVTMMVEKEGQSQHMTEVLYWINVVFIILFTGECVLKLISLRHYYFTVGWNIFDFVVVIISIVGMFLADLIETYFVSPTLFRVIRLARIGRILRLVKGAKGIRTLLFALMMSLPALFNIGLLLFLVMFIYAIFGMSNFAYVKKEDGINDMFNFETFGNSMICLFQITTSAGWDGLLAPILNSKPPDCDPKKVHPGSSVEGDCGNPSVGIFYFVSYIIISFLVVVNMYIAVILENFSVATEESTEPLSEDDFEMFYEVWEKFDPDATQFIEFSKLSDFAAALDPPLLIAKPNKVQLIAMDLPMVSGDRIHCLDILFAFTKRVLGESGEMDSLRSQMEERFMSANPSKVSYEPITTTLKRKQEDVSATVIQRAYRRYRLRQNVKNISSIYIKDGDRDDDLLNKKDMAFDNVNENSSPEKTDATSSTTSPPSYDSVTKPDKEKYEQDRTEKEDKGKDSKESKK
T4 sequence (Q8R455 whole entry, canonical isoform): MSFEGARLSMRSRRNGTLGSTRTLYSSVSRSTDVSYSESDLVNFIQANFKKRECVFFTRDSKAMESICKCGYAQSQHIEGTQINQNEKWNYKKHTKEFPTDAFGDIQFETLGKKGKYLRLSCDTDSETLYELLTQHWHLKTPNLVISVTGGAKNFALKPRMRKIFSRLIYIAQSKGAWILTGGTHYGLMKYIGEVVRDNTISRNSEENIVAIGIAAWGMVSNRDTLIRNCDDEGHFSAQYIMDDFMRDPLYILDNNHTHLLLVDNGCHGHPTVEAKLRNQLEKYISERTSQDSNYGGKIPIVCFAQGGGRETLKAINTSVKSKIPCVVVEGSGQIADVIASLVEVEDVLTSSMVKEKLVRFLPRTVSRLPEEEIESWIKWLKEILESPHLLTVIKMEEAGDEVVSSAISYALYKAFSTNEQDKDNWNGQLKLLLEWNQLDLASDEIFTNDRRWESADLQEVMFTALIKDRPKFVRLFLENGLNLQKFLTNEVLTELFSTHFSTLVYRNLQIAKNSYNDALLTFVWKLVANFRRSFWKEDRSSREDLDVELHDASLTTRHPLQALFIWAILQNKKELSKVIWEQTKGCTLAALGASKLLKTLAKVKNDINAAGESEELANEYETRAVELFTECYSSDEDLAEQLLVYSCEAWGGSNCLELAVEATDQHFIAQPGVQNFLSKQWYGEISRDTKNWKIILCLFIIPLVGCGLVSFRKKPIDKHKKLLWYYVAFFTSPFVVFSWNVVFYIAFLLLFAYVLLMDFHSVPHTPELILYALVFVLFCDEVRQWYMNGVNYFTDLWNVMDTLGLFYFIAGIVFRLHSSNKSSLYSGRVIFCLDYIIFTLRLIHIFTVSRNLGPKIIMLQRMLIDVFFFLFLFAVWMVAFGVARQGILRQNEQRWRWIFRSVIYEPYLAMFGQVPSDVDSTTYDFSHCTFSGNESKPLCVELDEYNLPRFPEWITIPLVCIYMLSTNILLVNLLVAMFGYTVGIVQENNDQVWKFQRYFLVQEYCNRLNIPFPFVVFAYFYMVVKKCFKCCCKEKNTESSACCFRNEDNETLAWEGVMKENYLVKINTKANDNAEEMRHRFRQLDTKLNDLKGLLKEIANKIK
T1 sequence (O75762 whole entry): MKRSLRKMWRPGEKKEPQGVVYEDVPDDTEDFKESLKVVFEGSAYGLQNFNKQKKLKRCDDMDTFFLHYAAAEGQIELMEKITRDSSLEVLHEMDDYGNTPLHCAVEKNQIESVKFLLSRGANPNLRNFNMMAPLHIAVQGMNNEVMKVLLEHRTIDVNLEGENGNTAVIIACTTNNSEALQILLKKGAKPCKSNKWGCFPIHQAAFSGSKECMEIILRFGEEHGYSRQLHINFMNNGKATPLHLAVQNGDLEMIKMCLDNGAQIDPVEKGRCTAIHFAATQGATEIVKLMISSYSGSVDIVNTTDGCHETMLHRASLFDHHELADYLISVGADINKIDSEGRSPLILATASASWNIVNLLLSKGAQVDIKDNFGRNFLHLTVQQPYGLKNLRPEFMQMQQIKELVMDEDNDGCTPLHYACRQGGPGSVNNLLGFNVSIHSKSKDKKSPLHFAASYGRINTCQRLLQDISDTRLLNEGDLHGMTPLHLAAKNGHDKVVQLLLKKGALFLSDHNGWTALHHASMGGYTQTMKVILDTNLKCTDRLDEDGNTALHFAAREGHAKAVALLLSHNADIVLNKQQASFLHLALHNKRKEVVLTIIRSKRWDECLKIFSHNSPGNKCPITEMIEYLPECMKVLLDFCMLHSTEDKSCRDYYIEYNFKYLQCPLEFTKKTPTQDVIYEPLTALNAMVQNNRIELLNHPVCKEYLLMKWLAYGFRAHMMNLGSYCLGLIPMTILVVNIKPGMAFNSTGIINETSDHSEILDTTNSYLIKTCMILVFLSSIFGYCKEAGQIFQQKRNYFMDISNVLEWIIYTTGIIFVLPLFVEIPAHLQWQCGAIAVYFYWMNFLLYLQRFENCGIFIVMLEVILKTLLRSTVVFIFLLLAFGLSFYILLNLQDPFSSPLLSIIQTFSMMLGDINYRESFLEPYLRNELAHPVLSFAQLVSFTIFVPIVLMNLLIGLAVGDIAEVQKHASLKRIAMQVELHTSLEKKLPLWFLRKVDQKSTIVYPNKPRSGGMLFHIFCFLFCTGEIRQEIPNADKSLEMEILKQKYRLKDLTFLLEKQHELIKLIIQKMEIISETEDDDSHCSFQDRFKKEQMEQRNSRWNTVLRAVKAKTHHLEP

The IC50 is the point on the concentration scale where inhibition reaches its midpoint. With `COC(=O)[C@@H]1Cc2c([nH]c3ccccc23)[C@@H](c2ccccc2)N1Cc1ccccc1` [6a, (1R,3S)-Methyl 2-Benzyl-1-phenyl-2,3,4,9-tetrahydro-1H-pyrido[3,4-b]indole-3-carboxylate], the “activity as agonist or antagonist on TRPA1” value (“activity … on TRPA1” below) on hTRPA1 is “no activity as agonists or antagonists”. The IC50 on hNav1.7 is more than 10 µM; in series [1] (setting [4]) it was 1.3 ± 0.7 µM. Further, the “activity as agonist or antagonist on TRPV1” value (“activity … on TRPV1” for short) at hTRPV1 is reported as “no activity as agonists or antagonists”.

On to `COC(=O)CC[C@H]1N[C@H](C(=O)NCc2ccc(F)cc2)Cc2c1[nH]c1ccccc21` [11a, Methyl 3-((1R,3S)-3-((4-Fluorobenzyl)carbamoyl)-2,3,4,9-tetrahydro-1H-pyrido[3,4-b]indol-1-yl)propanoate], for which the “activity … on TRPA1” value on hTRPA1 was “no activity as agonists or antagonists”. Besides, on hNav1.7, the “activity as agonist or antagonist on Nav1.7” value (from here on “activity … on Nav1.7”) was “no activity as agonists or antagonists”. For the same compound, at hTRPV1, the “activity … on TRPV1” value is listed as “no activity as agonists or antagonists”. The IC50 in series [1] (setting [4]) was 0.8 µM and 1.1 µM; in series [1] (setting [5]), 1.1 ± 0.5 µM. The “turnover in absence of metabolic cofactors” value in series [2] is listed as 66.5 ± 3.8%.

For the compound `O=C1[C@@H]2Cc3c([nH]c4ccccc34)[C@H](c3ccc(F)cc3)N2C(=O)N1c1cccc(C(F)(F)F)c1` [36b, (5S,11aS)-5-(4-Fluorophenyl)-2-(3-(trifluoromethyl)phenyl)-5,6,11,11a-tetrahydro-1H-imidazo[1′,5′:1,6]pyrido[3,4-b]indole-1,3(2H)-dione], on hTRPA1, the “activity … on TRPA1” value is recorded as “no activity as agonists or antagonists”. The “activity … on Nav1.7” value at hNav1.7 is reported as “no activity as agonists or antagonists”. In addition, the “activity … on TRPV1” value at hTRPV1 is listed as “no activity as agonists or antagonists”. In addition, the percentage of epimerization entry in series [3] (during patch-clamp electrophysiology assays) is “negligible”. The IC50 in series [1] (setting [4]) was determined as 0.2 ± 0.2 µM; in series [1] (setting [5]), 0.2 ± 0.2 µM; in series [1] (setting [6]) it was 0.3 ± 0.4 µM.

Regarding `O=C1[C@@H]2Cc3c([nH]c4ccccc34)[C@H](c3ccc(F)cc3)N2C(=O)N1c1ccccc1F` [37b, (5S,11aS)-2-(2-Fluorophenyl)-5-(4-fluorophenyl)-5,6,11,11a-tetrahydro-1H-imidazo[1′,5′:1,6]pyrido[3,4-b]indole-1,3(2H)-dione], the “conversion of cis isomer to trans isomer” value in series [3] is “almost fully converted to the trans isomers”.

`O=C1[C@@H]2Cc3c([nH]c4ccccc34)[C@H](c3ccc(F)cc3)N2C(=O)N1c1ccc(F)cc1` [38b, (5S,11aS)-2,5-Bis(4-fluorophenyl)-5,6,11,11a-tetrahydro-1H-imidazo[1′,5′:1,6]pyrido[3,4-b]indole-1,3(2H)-dione]: the “conversion of cis isomer to trans isomer” value in series [3] is listed as “almost fully converted to the trans isomers”.

As for `O=C(NCc1ccc(F)cc1)[C@@H]1Cc2c([nH]c3ccccc23)CN1` [compound 9, (S)-N-(4-Fluorobenzyl)-2,3,4,9-tetrahydro-1H-pyrido[3,4-b]indole-3-carboxamide], the “activity … on TRPA1” value at hTRPA1 is listed as “no activity as agonists or antagonists”. In addition, the IC50 at hNav1.7 was more than 10 µM; in series [1] (setting [4]), 0.9 ± 0.4 µM; in series [1] (setting [5]), 0.9 ± 0.4 µM; in series [1] (setting [6]), 0.6 ± 1.3 µM. In addition, at hTRPV1, the “activity … on TRPV1” value was “no activity as agonists or antagonists”.

As for `O=C1N[C@@H](Cc2ccccc2)C(=O)N2Cc3[nH]c4ccccc4c3C[C@@H]12` [compound 22, (3S,12aS)-3-Benzyl-2,3,12,12a-tetrahydropyrazino[1′,2′:1,6]pyrido[3,4-b]indole-1,4(6H,7H)-dione], the values for the IC50 in series [1] (setting [4]) and in series [1] (setting [6]) were 1.6 ± 0.7 µM and 1.2 ± 1.3 µM, respectively.

As for `O=C1N[C@H](Cc2ccccc2)C(=O)N2Cc3[nH]c4ccccc4c3C[C@@H]12` [compound 23, (3R,12aS)-3-Benzyl-2,3,12,12a-tetrahydropyrazino[1′,2′:1,6]pyrido[3,4-b]indole-1,4(6H,7H)-dione], the “activity … on TRPA1” value on hTRPA1 is recorded as “no activity as agonists or antagonists”. Besides, the “activity … on Nav1.7” value at hNav1.7 was “no activity as agonists or antagonists”. In addition, the “activity … on TRPV1” value on hTRPV1 is recorded as “no activity as agonists or antagonists”. The IC50 in series [1] (setting [4]) is 0.4 ± 0.1 µM; in series [1] (setting [5]) it was 0.4 ± 0.1 µM; in series [1] (setting [6]) it was 0.3 µM.

On to `O=C1[C@@H]2Cc3c([nH]c4ccccc34)CN2C(=O)N1Cc1ccc(F)cc1` [compound 28, (S)-2-(4-Fluorobenzyl)-5,6,11,11a-tetrahydro-1H-imidazo[1′,5′:1,6]pyrido[3,4-b]indole-1,3(2H)-dione], for which the IC50 in series [1] (setting [4]) turned out to be 17.8 ± 1.2 µM.

Values taken from paper PMC8009520, “Exploration of TRPM8 Binding Sites by β-Carboline-Based Antagonists and Their In Vitro Characterization and In Vivo Analgesic Activities” (Journal of Medicinal Chemistry, 2020).
